Test results reported in PubChem BioAssay (NCI).
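Cells were grown in 96-well plates and exposed to each compound for 48 hours at five concentrations; endpoints were interpolated linearly between bracketing concentrations, or set to the highest concentration if not reached. TGI is the concentration that stops growth completely.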 Where a SMILES comes first, the peptide text is derived from it. The star is where a group is joined. Pentanoyl = CCCCC(=O)*; Boc = CC(C)(C)OC(=O)*

Legend:
Experiment in all cases: DTP human tumour cell line panel, 48 h
KM12 colon = system: KM12 colon
SNB-75 CNS = system: SNB-75 CNS
COLO 205 colon = system: COLO 205 colon
SN12C renal = system: SN12C renal
SK-MEL-2 melanoma = system: SK-MEL-2 melanoma
HOP-92 NSCLC = system: HOP-92 NSCLC
SF-268 CNS = system: SF-268 CNS
IGROV1 ovarian = system: IGROV1 ovarian
SW-620 colon = system: SW-620 colon
T-47D breast = system: T-47D breast
SR leukemia = system: SR leukemia
NCI-H23 lung = system: NCI-H23 lung
K-562 leukemia = system: K-562 leukemia
LOX IMVI melanoma = system: LOX IMVI melanoma
MALME-3M melanoma = system: MALME-3M melanoma
PC-3 prostate = system: PC-3 prostate
NCI-H226 lung = system: NCI-H226 lung
CCRF-CEM leukemia = system: CCRF-CEM leukemia
NCI-H460 lung = system: NCI-H460 lung
HL-60(TB) leukemia = system: HL-60(TB) leukemia

SMILES	TGI (KM12 colon) [µM]	TGI (SNB-75 CNS) [µM]	TGI (COLO 205 colon) [µM]	TGI (SN12C renal) [µM]	TGI (SK-MEL-2 melanoma) [µM]	TGI (HOP-92 NSCLC) [µM]	TGI (SF-268 CNS) [µM]	TGI (IGROV1 ovarian) [µM]	TGI (SW-620 colon) [µM]	TGI (T-47D breast) [µM]	TGI (SR leukemia) [µM]	TGI (NCI-H23 lung) [µM]	TGI (K-562 leukemia) [µM]	TGI (LOX IMVI melanoma) [µM]	TGI (MALME-3M melanoma) [µM]	TGI (PC-3 prostate) [µM]	TGI (NCI-H226 lung) [µM]	TGI (CCRF-CEM leukemia) [µM]	TGI (NCI-H460 lung) [µM]	TGI (HL-60(TB) leukemia) [µM]
c1ccc(C2SCc3nc4cc5ccccc5cc4n32)cc1 (configuration not stated)	> 100	> 100	> 100	> 100	> 100	> 100	> 100	> 100	> 100	> 100	> 100	> 100	> 100	> 100	> 100	> 100	> 100	> 100		
Cc1cnc(-c2c[nH]c3ccccc23)nc1-c1c[nH]c2ccccc12	15.6	9.64	16.8	8.53	20.6	7.21	35.6	14.8	30.2	9.15	33.9		26	17.1		14.2		4.92	14.8	25.1
CCCCC(=O)Oc1ccc(CC(NC(=O)OC(C)(C)C)C(=O)NC(C)C(=O)NC(Cc2ccccc2)C(=O)NCC(N)=O)cc1 (configuration not stated) (Boc-Y(Pentanoyl)AFG-NH2; configuration not given here)	47.8	> 100	37.6	> 100	41.1	99.4	> 100	53.7	> 100	79		> 100	> 100	30.7	> 100	> 100	> 100	> 100	> 100	61
Cc1nc2ccccc2c(=O)n1NC(=O)c1ccc([N+](=O)[O-])cc1	> 100	> 100	> 100	> 100		> 100	> 100	> 100	> 100	> 100	> 100	> 100	> 100	> 100	> 100	> 100	> 100	> 100	> 100	> 100
CCOC(=O)C(C)(C(=O)OCC)/C(Cl)=C\Cl	> 100	> 100	> 100	> 100		> 100	> 100	> 100	> 100	> 100	> 100	> 100	> 100	> 100	> 100	> 100	> 100	> 100	> 100	> 100
O1C2C1C1OC1C1OC1C1OC21 (configuration not stated)	> 100	> 100	> 100	> 100	> 100	> 100	> 100			> 100	> 100	> 100	> 100	> 100	> 100	> 100	> 100	> 100		
C=CCn1c(C23CC4CC(CC(C4)C2)C3)n[nH]c1=S	> 100	> 100	> 100	> 100	> 100		> 100	> 100	> 100	> 100	29.3	> 100	> 100	> 100	> 100	> 100	> 100	> 100	> 100	53.9
